{"source": "patent US12123017B2", "about": "“Composition and method for cultivation, expansion, preservation and/or cell pretreatment” (REGENERO S.A., priority 2017, dated 2024)", "system": "Umbilical cord derived mesenchymal stem cells", "assay": "Biopreservation of MSCs at 4° C. for three days (viability by trypan blue, adhesion, proliferation, migration)", "format": "cell-based", "settings": "0.1 μM in CBS, P<0.01", "experimental": "Approximately 200,000 umbilical cord derived mesenchymal stem cells were stored in 200 μl of commercial biopreservation solution (CBS) as a control and 200 μl of CBS supplemented with the medium supplement of the invention. The samples were kept at 4° C. for three days. Cells were resuspended in DMEM base, and viability was assessed by trypan blue exclusion assay. […] Cell adhesion was evaluated 24 hours after cells were seeded in 10 mm plates. […] Finally, the cells preserved with CBS proliferated less than those preserved in CBS with pterostilbene (FIG. 4D). Therefore, the solution of the invention improves the functionality of the cells after 3 days of biopreservation."}
{"compound": "COc1cc(/C=C/c2ccc(O)cc2)cc(OC)c1", "note": "[Pterostilbene]", "values": [{"measurement": "cell viability better compared to CBS alone", "result": "approximately 10%"}]}
